Results on 74 compounds are retold here after publication PMC12040169 (PLOS Biology, 2025).

A short description of the series: in vitro. Conditions: human, hela cells, % viability.

Consider `CCC(C)(C)c1ccc(S(=O)(=O)N2CCCN(Cc3c[nH]c(=O)[nH]c3=O)CC2)cc1` [CBK062881], for which the viability at 28.5 h, 10 µM is 91.8%.
Take `CCC(C)(C)c1ccc(S(=O)(=O)N2CCCN(Cc3c(-c4ccccc4)noc3C)CC2)cc1` [CBK062888]: the viability at 28.5 h, 10 µM was 92.8%.
Then `CCCC(=O)c1ccc(S(=O)(=O)N2CCCN(Cc3ccc(C#N)cc3)CC2)cc1` [CBK062895], with 106%.
As to `CCCC(=O)c1ccc(S(=O)(=O)N2CCCN(Cc3cc(Br)cs3)CC2)cc1` [CBK062896], the viability at 28.5 h, 10 µM was determined as 91.2%.
With `CCCC(=O)c1ccc(S(=O)(=O)N2CCCN(Cc3cccnc3N3CCOCC3)CC2)cc1` [CBK062900], the viability at 28.5 h, 10 µM came to 93.9%.
In the case of `CCCC(=O)c1ccc(S(=O)(=O)N2CCCN(Cc3ccc4cccc(O)c4n3)CC2)cc1` [CBK062901], the viability at 28.5 h, 10 µM came out at 102%.
As for `CCCC(=O)c1ccc(S(=O)(=O)N2CCCN(Cc3ccc(F)c(C#N)c3)CC2)cc1` [CBK062910], the figure is 114%; as for `CCCC(=O)c1ccc(S(=O)(=O)N2CCCN(Cc3c[nH]nc3-c3ccccc3)CC2)cc1` [CBK062916], 83.9%; as for `CCCC(=O)c1ccc(S(=O)(=O)N2CCCN(Cc3ccc(F)c(C(F)(F)F)c3)CC2)cc1` [CBK062918], 93%.
With `N#Cc1ccc(CN2CCCN(S(=O)(=O)c3ccc(C(F)(F)F)cc3Cl)CC2)cc1` [CBK062939], the viability at 28.5 h, 10 µM was found to be 98%.
`CC(C)CN1CCCN(S(=O)(=O)c2ccc(C(F)(F)F)cc2Cl)CC1` [CBK062943]: the viability at 28.5 h, 10 µM stood at 86.5%.
As for `CCCC(=O)c1ccc(S(=O)(=O)N2CCCN(Cc3c(C)[nH]c(C(=O)OCC)c3C)CC2)cc1` [CBK062947], the viability at 28.5 h, 10 µM turned out to be 101%.
Consider `CCCC(=O)c1ccc(S(=O)(=O)N2CCN(Cc3ccc(O)c(F)c3)CC2)cc1` [CBK062959], for which the viability at 28.5 h, 10 µM was determined as 111%.
Take `N#Cc1ccc(CN2CCN(S(=O)(=O)c3ccc(-n4cnc(Cl)c4Cl)cc3)CC2)cc1` [CBK062972]: the viability at 28.5 h, 10 µM worked out at 104%.
On to `Cc1c(F)cccc1CN1CCCN(S(=O)(=O)c2ccc(-c3ccccc3)cc2)CC1` [CBK062977], for which the viability at 28.5 h, 10 µM stood at 95.9%.
Regarding `COC(=O)CCc1ccc(S(=O)(=O)N2CCCN(Cc3cc(Cl)cc(Cl)c3)CC2)cc1` [CBK062982], the viability at 28.5 h, 10 µM amounted to 97.2%.
For the compound `COC(=O)CCc1ccc(S(=O)(=O)N2CCCN(Cc3cccc(C(F)(F)F)c3)CC2)cc1` [CBK062983], the viability at 28.5 h, 10 µM came out at 100%.
With `COC(=O)CCc1ccc(S(=O)(=O)N2CCCN(Cc3cccc(Cl)c3Cl)CC2)cc1` [CBK062988], the viability at 28.5 h, 10 µM was 93.5%.
As for `COC(=O)CCc1ccc(S(=O)(=O)N2CCCN(Cc3cccc4c3OCO4)CC2)cc1` [CBK062993], the viability at 28.5 h, 10 µM was 88.8%.
In the case of `COC(=O)CCc1ccc(S(=O)(=O)N2CCCN(Cc3ccc(Cl)c(C(F)(F)F)c3)CC2)cc1` [CBK062995], the viability at 28.5 h, 10 µM was 102%.
For the compound `COC(=O)CCc1ccc(S(=O)(=O)N2CCCN(Cc3cc(F)c(F)c(F)c3)CC2)cc1` [CBK062998], the viability at 28.5 h, 10 µM turned out to be 103%.
Then `CC(C)CN1CCCN(S(=O)(=O)c2ccc(-n3cnc(Cl)c3Cl)cc2)CC1` [CBK063017], with 88.5%.
For `Cc1nc(CN2CCCN(S(=O)(=O)c3ccc(C(=O)c4ccccc4)cc3)CC2)c[nH]1` [CBK063029], the viability at 28.5 h, 10 µM came to 113%.
Turning to `O=S(=O)(c1ccc(C(F)(F)F)cc1Cl)N1CCCN(Cc2cccc3c2OCO3)CC1` [CBK063067], the viability at 28.5 h, 10 µM stood at 98.6%.
Take `CC(=O)c1ccc(CN2CCN(S(=O)(=O)c3ccc(C(F)(F)F)cc3Cl)CC2)cc1` [CBK063072]: the viability at 28.5 h, 10 µM amounted to 96%.
As for `O=S(=O)(c1ccc(C(F)(F)F)cc1Cl)N1CCN(Cc2ccc3cccc(O)c3n2)CC1` [CBK063073], the figure is 94.1%.
Then `Cc1cc(CN2CCN(S(=O)(=O)c3ccc(C(F)(F)F)cc3Cl)CC2)cc(C)c1O` [CBK063074], with 103%; and `O=S(=O)(c1ccc(C(F)(F)F)cc1Cl)N1CCN(Cc2cccc3cccnc23)CC1` [CBK063075], with 110%; and `COC(=O)c1cc(CN2CCCN(S(=O)(=O)c3ccc(-n4cnc(Cl)c4Cl)cc3)CC2)cn1C` [CBK063080], with 85.2%.
As for `COC(=O)CCc1ccc(S(=O)(=O)N2CCCN(Cc3ccc(C)o3)CC2)cc1` [CBK063081], the viability at 28.5 h, 10 µM is 99.8%.
As to `COC(=O)CCc1ccc(S(=O)(=O)N2CCCN(Cc3c[nH]c(=O)[nH]c3=O)CC2)cc1` [CBK063082], the viability at 28.5 h, 10 µM amounted to 113%.
As for `Cc1nc[nH]c1CN1CCCN(S(=O)(=O)c2ccc(-n3cnc(Cl)c3Cl)cc2)CC1` [CBK063087], the figure is 91.7%; as for `O=S(=O)(c1ccc(-n2cnc(Cl)c2Cl)cc1)N1CCCN(Cc2ccc3cccc(O)c3n2)CC1` [CBK063088], 92%; as for `COC(=O)c1cc(CN2CCCN(S(=O)(=O)c3ccc(C(F)(F)F)cc3Cl)CC2)cn1C` [CBK063097], 99.4%.
On to `N#Cc1cc(CN2CCCN(S(=O)(=O)c3ccc(C(F)(F)F)cc3Cl)CC2)ccc1F` [CBK063100], for which the viability at 28.5 h, 10 µM was found to be 98.8%.
For `Cc1cc(CN2CCCN(S(=O)(=O)c3ccc(C(F)(F)F)cc3Cl)CC2)cc(C)c1O` [CBK063102], the viability at 28.5 h, 10 µM turned out to be 91.2%.
Regarding `O=S(=O)(c1ccc(-c2ccccc2)cc1)N1CCCN(Cc2cccc(F)c2F)CC1` [CBK063111], the viability at 28.5 h, 10 µM was 113%.
As for `CC(=O)Oc1cccc(CN2CCCN(S(=O)(=O)c3ccc(-c4ccccc4)cc3)CC2)c1` [CBK063113], the figure is 94.1%; as for `COC(=O)CCc1ccc(S(=O)(=O)N2CCCN(Cc3ccc4c(c3)OCO4)CC2)cc1` [CBK063130], 106%.
Then `CCCC(=O)c1ccc(S(=O)(=O)N2CCN(Cc3cccc(F)c3C)CC2)cc1` [CBK063152], with 88.4%; and `CCCC(=O)c1ccc(S(=O)(=O)N2CCN(Cc3ccc4cccc(O)c4n3)CC2)cc1` [CBK063158], with 102%.
Turning to `CCCC(=O)c1ccc(S(=O)(=O)N2CCN(Cc3c[nH]nc3-c3cccs3)CC2)cc1` [CBK063160], the viability at 28.5 h, 10 µM came to 79.6%.
On to `COc1ccc([C@@]23CC[C@@H](NC(=O)Nc4cccc(C(F)(F)F)c4F)C[C@@H]2CN(C)C3)cc1OC` [CBK063195A], for which the viability at 28.5 h, 10 µM stood at 98.5%.
Consider `O=C(Nc1ccc2cc(Br)cnc2n1)c1ccccc1[N+](=O)[O-]` [CBK063253], for which the viability at 28.5 h, 10 µM worked out at 96.8%.
For the compound `Cc1ccc(NC(=O)Nc2ccc3cc(Br)cnc3n2)c(C)c1` [CBK063269], the viability at 28.5 h, 10 µM amounted to 85.8%.
Then `CCOC(=O)NC(=O)Nc1cc2ccccc2c(Br)n1` [CBK063282], with 88.1%.
As to `O=C(Nc1cc2cccnc2c(Br)n1)Nc1ccc(F)cc1C(F)(F)F` [CBK063287], the viability at 28.5 h, 10 µM is 88.8%.
Then `CCCCOc1ccc(NC(=O)Nc2cc3cccnc3c(Br)n2)cc1` [CBK063291], with 78.1%; and `Cc1ccccc1C(=O)NCC(=O)Nc1cc2ccccc2c(Br)n1` [CBK063298], with 89.4%.
Then `CC(=O)OCC(=O)Nc1ccc2cc(Br)cnc2n1` [CBK063311], with 91.1%; and `Cc1ccccc1C(=O)NCC(=O)Nc1ccc2cc(Br)cnc2n1` [CBK063312], with 96.5%.
With `O=C(Nc1ccc2cc(Br)cnc2n1)C(F)(F)F` [CBK063313], the viability at 28.5 h, 10 µM was found to be 90%.
Take `O=C1N=C(N2CCCCCC2)SC1CC(=O)N1CCCc2ccccc21` (centres unmarked) [CBK063336]: the viability at 28.5 h, 10 µM came out at 93.4%.
Consider `O=C1N=C(NC2CCCCCC2)SC1CC(=O)N1CCCC1` (centres unmarked) [CBK063342], for which the viability at 28.5 h, 10 µM turned out to be 95.3%.
As to `COc1ccccc1-c1cnc(N)c(NCc2ccccc2)n1` [CBK063357], the viability at 28.5 h, 10 µM came to 94.3%.
`CC(=O)Nc1cccc(-c2cnc(N)c(N3CCN(C)CC3)n2)c1` [CBK063361]: the viability at 28.5 h, 10 µM worked out at 107%.
For `Nc1ncc(-c2cccc(O)c2)nc1N1CCOCC1` [CBK063376], the viability at 28.5 h, 10 µM was determined as 100%.
Then `CN(C)CCNC(=O)c1cccc(-c2cnc(N)c(N3CCN(C)CC3)n2)c1` [CBK063393], with 95%; and `Nc1ncc(-c2ccccc2CO)nc1N1CCN(CCO)CC1` [CBK063404], with 100%; and `Nc1ncc(-c2cccc(O)c2)nc1N1CCC(C(=O)O)CC1` [CBK063405], with 85.3%.
Consider `Nc1ncc(-c2cccc(CO)c2)nc1N1CCOCC1` [CBK063406], for which the viability at 28.5 h, 10 µM worked out at 97.6%.
As for `Nc1ncc(-c2cccc(-c3ccccc3)c2)nc1N1CCN(CCO)CC1` [CBK063410], the figure is 113%.
`Nc1ncc(-c2cccc(C(=O)O)c2)nc1N1CCOCC1` [CBK063415]: the viability at 28.5 h, 10 µM worked out at 101%.
As for `CN1CCN(c2nc(-c3ccc(-c4ccccc4)cc3)cnc2N)CC1` [CBK063421], the viability at 28.5 h, 10 µM was found to be 106%.
As to `Nc1ncc(-c2cncnc2)nc1N1CCOCC1` [CBK063422], the viability at 28.5 h, 10 µM came out at 93.7%.
Turning to `CN1CCN(c2nc(-c3ccco3)cnc2N)CC1` [CBK063449], the viability at 28.5 h, 10 µM is 109%.
Then `Nc1ncc(-c2ccccc2)nc1NCc1cccnc1` [CBK063452], with 116%; and `NC(=O)c1cccc(-c2cnc(N)c(N3CCC[C@@H]3CO)n2)c1` [CBK063458], with 99.5%; and `CN1CCN(c2nc(-c3cccc4ncccc34)cnc2N)CC1` [CBK063465], with 107%.
As for `Nc1ncc(-c2cccc3cccnc23)nc1N1CCC[C@@H]1CO` [CBK063470], the figure is 108%; as for `COc1cc(-c2cnc(N)c(N3CCC[C@@H]3CO)n2)cc(OC)c1OC` [CBK063478], 101%.
Take `CN(C)CCN1CCN(c2nc(-c3cccc4ccccc34)cnc2N)CC1` [CBK063479]: the viability at 28.5 h, 10 µM turned out to be 94.7%.
With `Nc1ncc(-c2ccc3c(c2)OCO3)nc1NCc1ccncc1` [CBK063483], the viability at 28.5 h, 10 µM stood at 106%.
As for `CN(C)CCN1CCN(c2nc(-c3ccc4c(c3)OCO4)cnc2N)CC1` [CBK063495], the figure is 93.9%.
